From US5968910A, “Compositions containing two or three inhibitors of different HIV reverse transcriptases” (priority 1994, dated 1999)
Values after ≈ are worked out from the molar mass of the structure shown. Read-outs that look alike come from different tables or passages of the source.

Key:
Format in all cases: cell-based
HIV-1(IIIB) (WT) = experiment: microbe, parasite or virus in culture; conditions: Human immunodeficiency virus 1, IIIB, CCRF-CEM
Outline: (§1)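 Syncytium formation read out after 4 days at 37° C. Cultures: CEM cells, 250,000/ml, infected at 100 50% cell culture infective doses/ml and added to compound dilutions.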

HIV-1(IIIB) = experiment: Knock-out concentrations: breakthrough of HIV-1(IIIB)-induced cytopathicity in CEM cell cultures; conditions: for activity at 0.1 µg/mL / activity at 0.5 µg/mL / activity at 2.5 µg/mL: Human immunodeficiency virus 1, IIIB, CCRF-CEM, read-out: HIV-1-induced cytopathicity in cell culture; for activity at 0.1 µg/mL: 0.1 μg/ml; for activity at 0.5 µg/mL: 0.5 μg/ml; for activity at 2.5 µg/mL: 2.5 μg/ml
Outline: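 CEM cells in RPMI 1640 with 10% FBS infected with HIV-1(IIIB) at ~1000× CCID50, subcultured every 3–4 days into fresh uninfected cells with drug held constant for 10 subcultivations (35 days), then ≥5 drug-free passages. Breakthrough scored by syncytium formation. Combinations used the two lowest single-drug starting concentrations.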

[1] = test system: HIV-1/TSAO-m^3 T (138-Lys); experiment: Sensitivity of mutant HIV-1 strain in CEM cell cultures; conditions: Human immunodeficiency virus 1, CCRF-CEM; CEM cells, Table 1; read-out: 50% Effective Concentration
Outline: as §1

[2] = test system: HIV-1/TIBO R82913 (103-Asn); experiment: as above; conditions: Human immunodeficiency virus 1, CCRF-CEM; CEM cells, Table 1; read-out: 50% Effective Concentration
Outline: as §1

[3] = test system: HIV-1/TIBO R82150 (100-Ile); experiment: as above; conditions: Human immunodeficiency virus 1, CCRF-CEM; CEM cells, Table 1; read-out: 50% Effective Concentration
Outline: as §1

HIV-1/II(0.1) 100-Ile = experiment: as above; conditions: Human immunodeficiency virus 1, CCRF-CEM; Table 5; read-out: EC50
Outline: as §1

HIV-1/IV(0.1) 103-Thr = experiment: as above; conditions: Human immunodeficiency virus 1, CCRF-CEM; Table 5; read-out: EC50
Outline: as §1

HIV-1/Nev (106-Ala) = experiment: as above; conditions: Human immunodeficiency virus 1, CCRF-CEM; CEM cells, Table 1; read-out: 50% Effective Concentration
Outline: as §1

HIV-1/I(0.1) 103-Asn = experiment: as above; conditions: Human immunodeficiency virus 1, CCRF-CEM; Table 5; read-out: EC50
Outline: as §1

HIV-1/III(0.1) 103-Asn = experiment: as above; conditions: Human immunodeficiency virus 1, CCRF-CEM; Table 5; read-out: EC50
Outline: as §1

[4] = test system: HIV-1/V(0.1) 101-Ile + 141-Glu; experiment: as above; conditions: Human immunodeficiency virus 1, CCRF-CEM; Table 5; read-out: EC50
Outline: as §1

HIV-1/V(0.5) 103-Asn = experiment: as above; conditions: Human immunodeficiency virus 1, CCRF-CEM; Table 5; read-out: EC50
Outline: as §1

HIV-1/Pyr (181-Cys) = experiment: as above; conditions: Human immunodeficiency virus 1, CCRF-CEM; CEM cells, Table 1; read-out: 50% Effective Concentration
Outline: as §1

[5] = 936 h, day 39 post infection, compound absent from day 35
[6] = 1008 h, day 42 post infection, compound absent from day 35
[7] = 1104 h, day 46 post infection, compound absent from day 35
[8] = 1176 h, day 49 post infection, compound absent from day 35
[9] = 1272 h, day 53 post infection, compound absent from day 35

Cc1occc1C(=S)Nc1ccc(Cl)c(C(=O)OCC(C)C)c1 [Compound II]
EC50 (HIV-1(IIIB) (WT); CEM cells, Table 1, read-out: 50% Effective Concentration): 10 ng/mL (≈ 0.0284 µM) | EC50 (HIV-1(IIIB) (WT); HIV-1 (III8), Table 5, read-out: EC50): 7 ng/mL (≈ 0.0199 µM) | IC50 (HIV-1(IIIB) (WT); range stated for Compounds I-V together, read-out: 50% inhibitory concentration, HIV-1(IIIB) replication in CEM cells): 0.004 to 0.05 µg/mL (≈ 0.0114 to 0.142 µM) | prevention of virus breakthrough, fold more efficient than BHAP (HIV-1(IIIB)): at least 5 fold | prevention of virus breakthrough, fold more efficient than nevirapine (HIV-1(IIIB)): ≥ 25 fold | activity at 0.1 µg/mL (HIV-1(IIIB); 96 h, day 4 post infection): 0% | activity at 0.5 µg/mL (HIV-1(IIIB); 96 h, day 4 post infection): 0% | activity at 2.5 µg/mL (HIV-1(IIIB); 96 h, day 4 post infection): 0% | activity at 0.1 µg/mL (HIV-1(IIIB); 192 h, day 8 post infection): 0% | activity at 0.5 µg/mL (HIV-1(IIIB); 192 h, day 8 post infection): 0% | activity at 2.5 µg/mL (HIV-1(IIIB); 192 h, day 8 post infection): 0% | activity at 0.1 µg/mL (HIV-1(IIIB); 264 h, day 11 post infection): 0% | activity at 0.5 µg/mL (HIV-1(IIIB); 264 h, day 11 post infection): 0% | activity at 2.5 µg/mL (HIV-1(IIIB); 264 h, day 11 post infection): 0% | activity at 0.1 µg/mL (HIV-1(IIIB); 336 h, day 14 post infection): 12.5% | activity at 0.5 µg/mL (HIV-1(IIIB); 336 h, day 14 post infection): 0% | activity at 2.5 µg/mL (HIV-1(IIIB); 336 h, day 14 post infection): 0% | activity at 0.1 µg/mL (HIV-1(IIIB); 408 h, day 17 post infection): 50% | activity at 0.5 µg/mL (HIV-1(IIIB); 408 h, day 17 post infection): 0% | activity at 2.5 µg/mL (HIV-1(IIIB); 408 h, day 17 post infection): 0% | activity at 0.1 µg/mL (HIV-1(IIIB); 504 h, day 21 post infection): 100% | activity at 0.5 µg/mL (HIV-1(IIIB); 504 h, day 21 post infection): 0% | activity at 2.5 µg/mL (HIV-1(IIIB); 504 h, day 21 post infection): 0% | activity at 0.1 µg/mL (HIV-1(IIIB); 600 h, day 25 post infection): 100% | activity at 0.5 µg/mL (HIV-1(IIIB); 600 h, day 25 post infection): 0% | activity at 2.5 µg/mL (HIV-1(IIIB); 600 h, day 25 post infection): 0% | activity at 0.1 µg/mL (HIV-1(IIIB); 672 h, day 28 post infection): 100% | activity at 0.5 µg/mL (HIV-1(IIIB); 672 h, day 28 post infection): 0% | activity at 2.5 µg/mL (HIV-1(IIIB); 672 h, day 28 post infection): 0% | activity at 0.1 µg/mL (HIV-1(IIIB); 768 h, day 32 post infection): 100% | activity at 0.5 µg/mL (HIV-1(IIIB); 768 h, day 32 post infection): 0% | activity at 2.5 µg/mL (HIV-1(IIIB); 768 h, day 32 post infection): 0% | activity at 0.1 µg/mL (HIV-1(IIIB); 840 h, day 35 post infection): 100% | activity at 0.5 µg/mL (HIV-1(IIIB); 840 h, day 35 post infection): 0% | activity at 2.5 µg/mL (HIV-1(IIIB); 840 h, day 35 post infection): 0% | activity at 0.1 µg/mL (HIV-1(IIIB); [5]): 100% | activity at 0.5 µg/mL (HIV-1(IIIB); [5]): 0% | activity at 2.5 µg/mL (HIV-1(IIIB); [5]): 0% | activity at 0.1 µg/mL (HIV-1(IIIB); [6]): 100% | activity at 0.5 µg/mL (HIV-1(IIIB); [6]): 0% | activity at 2.5 µg/mL (HIV-1(IIIB); [6]): 0% | activity at 0.1 µg/mL (HIV-1(IIIB); [7]): 100% | activity at 0.5 µg/mL (HIV-1(IIIB); [7]): 0% | activity at 2.5 µg/mL (HIV-1(IIIB); [7]): 0% | activity at 0.1 µg/mL (HIV-1(IIIB); [8]): 100% | activity at 0.5 µg/mL (HIV-1(IIIB); [8]): 0% | activity at 2.5 µg/mL (HIV-1(IIIB); [8]): 0% | activity at 0.1 µg/mL (HIV-1(IIIB); [9]): 100% | activity at 0.5 µg/mL (HIV-1(IIIB); [9]): 0% | activity at 2.5 µg/mL (HIV-1(IIIB); [9]): 0% | concentration at which virus emerged (virus breakthrough) (HIV-1(IIIB); tested at 0.1, 0.5 and 2.5 μg/ml, 35 days): 0.1 µg/mL | EC50 [1]: 0.06 µg/mL (≈ 0.171 µM) | EC50 [2]: 0.45 µg/mL (≈ 1.28 µM) | EC50 [3]: 0.19 µg/mL (≈ 0.54 µM) | EC50 (HIV-1/II(0.1) 100-Ile): 0.5 µg/mL (≈ 1.42 µM) | EC50 (HIV-1/IV(0.1) 103-Thr): 0.4 µg/mL (≈ 1.14 µM) | EC50 (HIV-1/Nev (106-Ala)): 0.075 µg/mL (≈ 0.213 µM) | EC50 (HIV-1/I(0.1) 103-Asn): 0.15 µg/mL (≈ 0.426 µM) | EC50 (HIV-1/III(0.1) 103-Asn): 0.16 µg/mL (≈ 0.455 µM) | EC50 [4]: 0.06 µg/mL (≈ 0.171 µM) | EC50 (HIV-1/V(0.5) 103-Asn): 0.8 µg/mL (≈ 2.27 µM) | EC50 (HIV-1/Pyr (181-Cys)): 0.07 µg/mL (≈ 0.199 µM)
